Data taken from patent US20210308182A1, “REGULATORY T CELL EPITOPES” (EpiVax Inc., priority 2020, published 2021).

What was measured:
CD4+ effector T cells = assay type: cell-based, human
human DR molecules = conditions: cited from earlier work
[1] = system: T cells of PBMCs from lupus patients; conditions: randomly selected lupus patients; cited from earlier work

Row | Sequence | suppression of activated effector CD4+ T cells (CD4+/CD25-high/FoxP3-intermediate) reacting to Tetanus Toxoid (CD4+ effector T cells) | suppression of proliferation of CD4+ effector T cells (CFSE) (CD4+ effector T cells) | binding to soluble HLA class II molecules (human DR molecules) | lupus patients whose PBMCs contain T cells that proliferate in response to the peptide [1] [%]
1 | KTLYLQMNSLRAEDTAKH (listed as Homo sapiens) [SEQ ID NO: 7] | strongly suppressed | Suppressed | – | –
2 | RIHMVYSKRSGKPRGYAFIEY (listed as Homo sapiens) [peptide 131-151] | – | – | binds to a large panel of human DR molecules | 40
